The source of these data is patent US4431639A, “Adjuvant for stimulating production of lymphocytes” (priority 1979, dated 1984).

Structures are written as SMILES. “Also recorded” adds a separate entry of the source.

For the experiment, the system named is Sarcoma 180. The experiment is described as follows: Survival / recovery of mice after intraperitoneal inoculation of Sarcoma 180. To be noted: for effectiveness against Sarcoma 180 compared with the extract of the natural herb: comparison in words; for effectiveness for treating mice inoculated with Sarcoma 180: in words. The experiment is classed as in vivo, mice (I.C.R.). Here is the method:
White male mice (I.C.R.) weighing 16 to 18 g.
1 gm of the dried powder was dissolved in 160 ml of tap water and was put into the animal cages in place of the usual drinking water, so that the test mice ingested it ad libitum. […]
A large volume of ether extract from a powder of Rhizoma Atractylis alba was produced. Some definite weights of the ether extract were dissolved in small volumes of ethanol, and then diluted with water to obtain emulsions of ether extract/water of 1 mg/100 ml, 2 mg/100 ml, 3 mg/100 ml, 4 mg/100 ml and 5 mg/100 ml.
The emulsions were administered to I.C.R. male mice for one month as described in Example 4, and then the mice were inoculated with 200,000 cells of Sarcoma 180 intraperitoneally. The survival time of the inoculated mice was regressed to the concentration of ether extract administered. […]
Mandelic acid, mandelic acid isoamyl ester (Atractyl), mandelic acid methyl ester, mandelic acid ethyl ester and atrolactic acid were tested by the same procedure as described in Example 6.

Regarding `COC(=O)C(O)c1ccccc1` (stereo not shown) [mandelic acid methyl ester], the “effectiveness against Sarcoma 180 compared with the extract of the natural herb” value is on record as “less effective than the extract from the natural herb” and the “effectiveness for treating mice inoculated with Sarcoma 180” value (“effectiveness … with Sarcoma 180” below) is reported as “somewhat effective”.
On the same counts, the results for `CC(C)CCOC(=O)C(O)c1ccccc1` (stereo not shown) [Atractyl, mandelic acid isoamyl ester] are “less effective than the extract from the natural herb; also recorded: significantly less than that of the extract of the natural herb” and “somewhat effective”.
For `CCOC(=O)C(O)c1ccccc1` (stereo not shown) [mandelic acid ethyl ester], the “effectiveness against Sarcoma 180 compared with the extract of the natural herb” value was “less effective than the extract from the natural herb” and the “effectiveness … with Sarcoma 180” value is “somewhat effective”.
The corresponding values for `O=C(O)C(O)c1ccccc1` (stereo not shown) [Mandelic acid] are “less effective than the extract from the natural herb” and “somewhat effective”.
Turning to `CC(O)(C(=O)O)c1ccccc1` (stereo not shown) [atrolactic acid], the “effectiveness against Sarcoma 180 compared with the extract of the natural herb” value is listed as “less effective than the extract from the natural herb” and the “effectiveness … with Sarcoma 180” value is “somewhat effective”.
